Reference: ChEMBL document CHEMBL1201862, “PubChem BioAssay data set” (2004)
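Dose response: 5 concentrations. Exposure: 48 h. Format: 96-well plates. Endpoint: linear interpolation; highest concentration if not reached. The concentration for 50% growth inhibition is given as GI50.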 The source made the active and inactive calls. No stated cut-off is given here; in the data, active = GI50 up to about 1.1 µM and inactive = higher.

Tests used:
Assay in all cases: growth of human tumour cells (NCI), 48 h
786-0 = system: 786-0
ACHN = system: ACHN
HOP-62 = system: HOP-62
HOP-92 = system: HOP-92
KM12 = system: KM12
LOX IMVI = system: LOX IMVI
M14 = system: M14
MOLT-4 = system: MOLT-4
Malme-3M = system: Malme-3M
NCI-H226 = system: NCI-H226
NCI-H23 = system: NCI-H23
OVCAR-4 = system: OVCAR-4
OVCAR-5 = system: OVCAR-5
OVCAR-8 = system: OVCAR-8
RXF 393 = system: RXF 393
SK-MEL-28 = system: SK-MEL-28
SN12C = system: SN12C
UACC-62 = system: UACC-62
TK-10 = system: TK-10
HCC 2998 = system: HCC 2998

Structure (SMILES)	GI50 (786-0)	GI50 (ACHN)	GI50 (HOP-62)	GI50 (HOP-92)	GI50 (KM12)	GI50 (LOX IMVI)	GI50 (M14)	GI50 (MOLT-4)	GI50 (Malme-3M)	GI50 (NCI-H226)	GI50 (NCI-H23)	GI50 (OVCAR-4)	GI50 (OVCAR-5)	GI50 (OVCAR-8)	GI50 (RXF 393)	GI50 (SK-MEL-28)	GI50 (SN12C)	GI50 (UACC-62)	GI50 (TK-10)	GI50 (HCC 2998)
O=C1CC(c2cccc([N+](=O)[O-])c2)C2(C(=O)NC(=O)NC2=O)C(c2cccc([N+](=O)[O-])c2)C1 (stereo not given)	> 100 µM (inactive)	> 100 µM (inactive)	> 100 µM (inactive)	36.5 µM (inactive)	27.5 µM (inactive)	36.8 µM (inactive)	> 100 µM (inactive)	> 100 µM (inactive)	0.783 µM (active)	58.2 µM (inactive)	> 100 µM (inactive)	> 100 µM (inactive)	> 100 µM (inactive)	> 100 µM (inactive)	13.6 µM (inactive)	> 100 µM (inactive)	> 100 µM (inactive)	98.4 µM (inactive)		
O=C(O)CSc1ccn(Cc2ccccc2)c1	> 100 µM (inactive)	> 100 µM (inactive)	> 100 µM (inactive)	> 100 µM (inactive)	> 100 µM (inactive)	> 100 µM (inactive)	> 100 µM (inactive)	> 100 µM (inactive)	> 100 µM (inactive)	> 100 µM (inactive)	> 100 µM (inactive)	> 100 µM (inactive)	> 100 µM (inactive)	> 100 µM (inactive)	> 100 µM (inactive)	> 100 µM (inactive)	> 100 µM (inactive)	> 100 µM (inactive)	> 100 µM (inactive)	
COc1nc(N)nc2c1n(C)c[n+]2C	> 100 µM (inactive)	> 100 µM (inactive)	> 100 µM (inactive)	> 100 µM (inactive)	> 100 µM (inactive)	> 100 µM (inactive)	> 100 µM (inactive)	> 100 µM (inactive)	> 100 µM (inactive)	> 100 µM (inactive)	> 100 µM (inactive)		> 100 µM (inactive)	> 100 µM (inactive)	> 100 µM (inactive)	> 100 µM (inactive)	> 100 µM (inactive)	> 100 µM (inactive)	> 100 µM (inactive)	
COCN1C(=O)[C@@H]2CCCN2C(=O)c2cc(N)ccc21	> 100 µM (inactive)	> 100 µM (inactive)	> 100 µM (inactive)		> 100 µM (inactive)	> 100 µM (inactive)	> 100 µM (inactive)		> 100 µM (inactive)		> 100 µM (inactive)	> 100 µM (inactive)	> 100 µM (inactive)	> 100 µM (inactive)	> 100 µM (inactive)	> 100 µM (inactive)	> 100 µM (inactive)	> 100 µM (inactive)	> 100 µM (inactive)	
CC(=O)NC(CSC1=C2NC(=O)\C=C/C=C\C=C/C(C)C(O)CC(=O)/C(C)=C\CC(O)/C=C\C(C)C(O)C(C)C=C(C)C(=O)c3c(O)c(C)cc(c3C1=O)C2=O)C(=O)O (stereo not given)	89.7 µM (inactive)	66.4 µM (inactive)	74 µM (inactive)	> 100 µM (inactive)	33.7 µM (inactive)	69.2 µM (inactive)	> 100 µM (inactive)	28.6 µM (inactive)	52.1 µM (inactive)	> 100 µM (inactive)	> 100 µM (inactive)	> 100 µM (inactive)	> 100 µM (inactive)	> 100 µM (inactive)		30.3 µM (inactive)	79.1 µM (inactive)	51.5 µM (inactive)	> 100 µM (inactive)	
O=c1c(/C=C/c2c(O)ccc3ccccc23)nnc2sc(-c3cccc([N+](=O)[O-])c3)nn12	7.13 µM (inactive)	5.12 µM (inactive)	18.2 µM (inactive)	24.2 µM (inactive)	22.1 µM (inactive)	6.56 µM (inactive)	10.8 µM (inactive)	3.94 µM (inactive)	11.4 µM (inactive)		19.1 µM (inactive)	6.98 µM (inactive)	33 µM (inactive)	13.7 µM (inactive)	19.4 µM (inactive)	> 100 µM (inactive)	9.33 µM (inactive)	11.4 µM (inactive)	9.29 µM (inactive)	
Cc1c2c(n(CCc3ccccc3)c1C)NN=C(C#N)S2(=O)=O	> 100 µM (inactive)	> 100 µM (inactive)	> 100 µM (inactive)		> 100 µM (inactive)	> 100 µM (inactive)	> 100 µM (inactive)	> 100 µM (inactive)	> 100 µM (inactive)		> 100 µM (inactive)	> 100 µM (inactive)	> 100 µM (inactive)	> 100 µM (inactive)		> 100 µM (inactive)	> 100 µM (inactive)	> 100 µM (inactive)	> 100 µM (inactive)	> 100 µM (inactive)
O=C(NNC(=O)c1ccccc1O)c1ccco1	> 100 µM (inactive)		> 100 µM (inactive)		> 100 µM (inactive)	> 100 µM (inactive)	> 100 µM (inactive)	> 100 µM (inactive)	> 100 µM (inactive)	> 100 µM (inactive)		> 100 µM (inactive)	> 100 µM (inactive)	80.7 µM (inactive)	> 100 µM (inactive)	> 100 µM (inactive)	> 100 µM (inactive)	> 100 µM (inactive)	> 100 µM (inactive)	
O=C(c1ccccc1Cl)n1oc2ccccc2c1=O	77.1 µM (inactive)	> 100 µM (inactive)	> 100 µM (inactive)	25.2 µM (inactive)	84.1 µM (inactive)	72.3 µM (inactive)	> 100 µM (inactive)	22.8 µM (inactive)	> 100 µM (inactive)	67 µM (inactive)		> 100 µM (inactive)	> 100 µM (inactive)	> 100 µM (inactive)	68.7 µM (inactive)	> 100 µM (inactive)	> 100 µM (inactive)	> 100 µM (inactive)	> 100 µM (inactive)	
COc1ccc(/C=C2\SC(c3ccc(OC)cc3)N(NC(=O)Cc3ccccc3)C2=O)cc1 (stereo not given)	> 100 µM (inactive)	> 100 µM (inactive)	> 100 µM (inactive)	> 100 µM (inactive)	> 100 µM (inactive)	> 100 µM (inactive)	> 100 µM (inactive)	79.3 µM (inactive)	> 100 µM (inactive)	> 100 µM (inactive)	> 100 µM (inactive)	> 100 µM (inactive)	> 100 µM (inactive)	> 100 µM (inactive)	63.7 µM (inactive)	> 100 µM (inactive)	> 100 µM (inactive)	> 100 µM (inactive)	> 100 µM (inactive)	
CC(C)C(Nc1ncnc2nc[nH]c12)C(=O)O (stereo not given)	> 100 µM (inactive)	> 100 µM (inactive)	> 100 µM (inactive)	> 100 µM (inactive)	> 100 µM (inactive)	> 100 µM (inactive)	> 100 µM (inactive)		> 100 µM (inactive)	> 100 µM (inactive)	> 100 µM (inactive)	> 100 µM (inactive)	> 100 µM (inactive)	> 100 µM (inactive)	> 100 µM (inactive)	> 100 µM (inactive)	> 100 µM (inactive)	> 100 µM (inactive)	> 100 µM (inactive)	
COC(CNC(=O)C(C)NC(=O)CCc1ccccc1)OC (stereo not given)	> 100 µM (inactive)	> 100 µM (inactive)		> 100 µM (inactive)	> 100 µM (inactive)		> 100 µM (inactive)	> 100 µM (inactive)	> 100 µM (inactive)	> 100 µM (inactive)	> 100 µM (inactive)	> 100 µM (inactive)	> 100 µM (inactive)	> 100 µM (inactive)	> 100 µM (inactive)	> 100 µM (inactive)	> 100 µM (inactive)	> 100 µM (inactive)	> 100 µM (inactive)	
O=S(=O)(/N=S(/Nc1ccccc1)C(Cl)Cl)c1ccccc1 (stereo not given)	> 100 µM (inactive)	> 100 µM (inactive)	> 100 µM (inactive)	> 100 µM (inactive)	> 100 µM (inactive)	> 100 µM (inactive)	> 100 µM (inactive)	> 100 µM (inactive)	> 100 µM (inactive)	> 100 µM (inactive)	> 100 µM (inactive)	> 100 µM (inactive)	> 100 µM (inactive)	> 100 µM (inactive)	> 100 µM (inactive)	> 100 µM (inactive)	> 100 µM (inactive)	> 100 µM (inactive)	> 100 µM (inactive)	
O=P(c1ccccc1)(c1ccccc1)C1CC=C2CCCCCC2C1 (stereo not given)	22.6 µM (inactive)			11 µM (inactive)	38.5 µM (inactive)	26.1 µM (inactive)	21.8 µM (inactive)	18.8 µM (inactive)	38.9 µM (inactive)	26.3 µM (inactive)	30.2 µM (inactive)	26.2 µM (inactive)	23.2 µM (inactive)	31 µM (inactive)	28.8 µM (inactive)	> 10 µM (inactive)	30.6 µM (inactive)	23.9 µM (inactive)	58.7 µM (inactive)	
CCSC1=N/C(=C\c2ccco2)C(=O)N1	> 100 µM (inactive)	> 100 µM (inactive)	> 100 µM (inactive)	93.3 µM (inactive)	> 100 µM (inactive)	> 100 µM (inactive)	> 100 µM (inactive)	> 100 µM (inactive)	> 100 µM (inactive)	> 100 µM (inactive)	> 100 µM (inactive)		> 100 µM (inactive)	> 100 µM (inactive)		> 100 µM (inactive)	> 100 µM (inactive)	> 100 µM (inactive)	> 100 µM (inactive)	
